Experiments:
Type in all cases: in vivo
[1] = test system: Bean Rust (Uromyces appendiculatus); assay: Greenhouse control of bean rust, second experiment; details: common bean, 10 days after infection (200 k conidia/ml), RTI472 and SERENADE OPTIMUM 1×10^8 cfu/ml, Tebuconazole 50 g a.i./ha, Chlorothalonil 500 g a.i./ha, non-treated 23% disease
[2] = test system: Soybean Powdery Mildew (Microsphaera diffusa); assay: Greenhouse control of soybean powdery mildew; details: 9 days after placing between infected flats, 1×10^8 cfu/ml, Tebuconazole (HORIZON) 50 g a.i./ha, non-treated 70% disease
[3] = test system: Pepper Botrytis Blight (Botrytis cinerea); assay: Greenhouse control of Pepper Botrytis Blight; details: 7 days after infection (1M conidia/ml), RTI472 and SERENADE OPTIMUM 1×10^8 cfu/ml, Tebuconazole 50 g a.i./ha, Chlorothalonil 500 g a.i./ha, non-treated 6% disease
[4] = test system: Pepper Botrytis Blight (Botrytis cinerea); assay: Greenhouse dose response for control of Pepper Botrytis Blight; details: 3 days after infection (1M conidia/ml), 50 g a.i./ha
[5] = test system: Pepper Botrytis Blight (Botrytis cinerea); assay: Greenhouse control of Pepper Botrytis Blight at varying pathogen inoculation rates; details: 4 days after infection, biologicals 1 × 10^8, Tebuconazole 50 g a.i./ha, non-treated 65% disease

SMILES	Percent Disease Control [1] [a Percent]	Percent Disease Control [2] [a Percent]	Percent Disease Control [3] [a Percent]	Percent Disease Control [4] [a Percent]	Percent Disease Control ([5]; inoculum 1M conidia/ml) [a Percent]	Percent Disease Control ([5]; inoculum 2M conidia/ml) [a Percent]
CC(C)(C)C(O)(CCc1ccc(Cl)cc1)Cn1cncn1 (centres unmarked) [Tebuconazole]	100	100	99	100	100	94
N#Cc1c(Cl)c(Cl)c(Cl)c(C#N)c1Cl [Chlorothalonil]	100		99			
